From patent US12714721B2, “Methods of treatment of a cytokine storm” (Loma Linda University Health, priority 2020, dated 2026)
Entries after “also recorded” stand apart in the source; their conditions may differ.

Legend:
Type in all cases: in vivo, mouse
whole kidney tissue = test: Measurements of mRNA expression in the kidney (real-time PCR), LPS-induced AKI; settings: for Orai1 gene expression: 7 days after LPS 20 mg/kg (FIG. 2E); for NGAL gene expression: 7 days after LPS (FIG. 6C); for proinflammatory cytokines gene expression (IL-1b, IL-17, IL-6, TNF-α, IL-18): 7 days after LPS (FIGS. 3A-3E)
Method: (§1) Experimental Design for IGF-1 and BTP-2 studies—The animal experiments involved B6 mice between 5-8 weeks of age. Most experiments involved five groups of animals: (1) healthy, (2) LPS untreated (LPS-No Tx), (3) IGF-I in vivo gene therapy one day before LPS injection (LPS+IGF-1), (4) BTP-2 16 mg/kg i.p. at the start of the study and the (5) combined therapy with IGF-I and BTP-2 (LPS-IGF-1+BTP-2). For the survival experiment, a lethal dose of LPS (25 mg/kg) was used and all of the untreated animals died by 72 hours. In the other experiments, a sublethal dose of LPS (20 mg/kg) was used.
(§2) LPS induced sepsis and subsequent AKI—Female C57BL/6 mice received a sublethal or lethal dose of LPS from E. coli (0127: B8 strain, Sigma Aldrich, St. Louis, MO, USA) in a concentration of 20 or 25 mg/kg body weight administrated in sterile PBS by intraperitoneal injection.
(§3) Treatment—In a preventive therapeutic strategy, some of the mice received an intramuscular injection of Lenti-IGF-1 24 hours before LPS injection; whereas, the calcium signaling blocker BTP-2 (16 mg/kg, Cayman Chemical) was administrated 1 hour before LPS injection. Some of the animals received a combination of Lenti-IGF-1 and BTP-2. Control group mice were injected with an equal volume of PBS.
Measurements of mRNA Expression in the Kidney—For the measurement of the mRNA expressions of whole kidney tissue, we performed real-time PCR. The relative amount of mRNA was calculated using the comparative Ct(ΔΔCt) method. All specific amplicons were normalized against GAPDH.

kidneys = test: Vascular leakage permeability assay (Evans blue dye), kidney; settings: day 1 (FIG. 5A)
Method: as §1
LPS induced sepsis and subsequent AKI—Female C57BL/6 mice received a sublethal or lethal dose of LPS from E. coli (0127: B8 strain, Sigma Aldrich, St. Louis, MO, USA) in a concentration of 20 or 25 mg/kg body weight administrated in sterile PBS by intraperitoneal injection. […]
Vascular leakage permeability assay—Evans blue dye (EBD) was dissolved in a 0.9% saline solution at a concentration of 5 mg/mL and injected to the mouse tail vein (50 mg/kg, i.v.). […] The absorbance of the supernatants was measured at 620 and 740 nm using a dual-wave ELISA plate reader.

kidney = test: Renal histology (CD31 and α-SMA staining, PAS staining, tubular injury score); settings: for PECAM (CD-31) staining: renal sections (FIGS. 4A-4E); for α-SMA staining: renal sections (FIGS. 4F-4J)
Method: as §1, §2, §3
Renal Histology—After sacrificing the mice, one part of the kidney was immediately cut, fixed in a 10% neutral buffered formalin solution, embedded in paraffin, and used for histopathological examination. 10-micrometer-thick sections were cut, deparaffinized, and hydrated. All renal serial sections were incubated at 4° C. overnight with one of two antibodies; rabbit polyclonal antibody against PECAM (CD31) (Santa Cruz, MA) or rabbit polyclonal antibody against α-SMA (Abcam, MA). After washing with TBST, biotinylated goat anti-rabbit IgG (1:200, Vector Labs, Burlingame, CA) were applied to the sections for 30 min at room temperature. Sections then were incubated with Streptavidin-HRP (Vector Labs, Burlingame, CA) for 30 min at room temperature. Diaminobenzidine (DAB; Vector Labs, Burlingame, CA) was used as the chromogen and hematoxylin as the counterstain. One part of the kidney was stained with periodic acid Schiff (PAS) stain. The PAS stained sections were examined for renal morphology in an automated fashion by quantification of a glycogen specific color in the kidney tissue using ImageJ (National Institutes of Health, Bethesda, MD, USA). A minimum of 10 fields for each kidney slide were examined and scored for pathological injury. […] The average histological score for each sample was calculated. The images were captured with an Olympus BX51 microscope, 40× magnification. (Olympus, Center Valley, PA).

whole lung tissues = test: Measurements of mRNA expression in the lungs (RT-qPCR), acute lung injury induced by LPS; settings: for CD31 gene expression: lungs (FIG. 12A); for VEGF gene expression: lungs (FIG. 12B); for α-SMA gene expression: lungs (FIG. 12C); for TRPC3 gene expression: day 7 (FIG. 10B); for TRPC6 gene expression: day 7 (FIG. 10C); for Orai1 gene expression: day 7 (FIG. 10D); for NGAL expression: day 7 (FIG. 15A); for SP-D expression: day 7 (FIG. 15B); for caspase 3 expression: day 7 (FIG. 15C); for proinflammatory cytokines gene expression (IL-1, IL-6, IL-17, TNF-α, IFN-γ): day 7 (FIGS. 11A-11E); for TLR-4 gene expression: seven days after LPS (FIG. 10A)
Method: Acute Lung Injury Induced by LPS—Female C57BL/6 mice received a sublethal or lethal dose of LPS from Escherichia coli (0127: B8 strain, Sigma Aldrich, St. Louis, MO, USA). LPS in sterile PBS was administered intraperitoneally at 20- or 25-mg/kg body weight.
Treatment for Lung Studies-Lenti-IGF-I was administered intramuscularly 24 h before LPS injection. The TRP and ORAI calcium channel blocker BTP-2 (YM-58483 16 mg/kg, Cayman Chemical, Ann Arbor, MI, USA) was given IP 1 h before LPS injection. Some of the animals received a combination of lenti-IGF-I and BTP-2. Mice in control groups were injected with an equal volume of PBS.
Measurements of mRNA Expression in the Lungs—For the measurement of the mRNA expressions of the whole lung tissues, RT-qPCR was performed. Lung tissues were snap-frozen in liquid nitrogen. According to the manufacturer's instructions, total RNA was isolated using the RNeasy Micro Kit® (Qiagen, Valencia, CA, USA). First-strand cDNA was synthesized using the SuperScript® III Reverse Transcriptase (Life Technologies, Grand Island, NY, USA). Quantitative RT-qPCR was performed and analyzed in an Applied Biosystems 7900HT Real-Time PCR machine (Applied Biosystems, Foster City, CA). The PCR condition was 10 min at 95° C. followed by 40 cycles of 10 s at 95° C. and 15 s at 60° C. The relative amount of mRNA was calculated using the comparative Ct (DDCt) method. All specific amplicons were normalized against GAPDH. Table 2 (SEQ ID Nos:1-36) provides for a list of the primers.

Row | Molecule | Orai1 gene expression (whole kidney tissue) | NGAL gene expression (whole kidney tissue) | proinflammatory cytokines gene expression (IL-1b, IL-17, IL-6, TNF-α, IL-18) (whole kidney tissue) | vascular leakage (extravasation of Evans blue dye) (kidneys) | PECAM (CD-31) staining (kidney) | α-SMA staining (kidney) | CD31 gene expression (whole lung tissues) | VEGF gene expression (whole lung tissues) | α-SMA gene expression (whole lung tissues) | IFN-γ expression (whole lung tissues; lungs, day 7) | IL-17 expression (whole lung tissues; lungs, day 7) | TNF-α expression (whole lung tissues; lungs, day 7) | TRPC3 gene expression (whole lung tissues; lungs) | TRPC6 gene expression (whole lung tissues; lungs) | Orai1 gene expression (whole lung tissues; lungs) | NGAL expression (whole lung tissues; lungs) | SP-D expression (whole lung tissues; lungs) | caspase 3 expression (whole lung tissues; lungs) | proinflammatory cytokines gene expression (IL-1, IL-6, IL-17, TNF-α, IFN-γ) (whole lung tissues; lungs) | TLR-4 gene expression (whole lung tissues; lungs) | further results
1 | Cc1nnsc1C(=O)Nc1ccc(-n2nc(C(F)(F)F)cc2C(F)(F)F)cc1 [BTP-2, 3,5-bis(trifluoromethyl)pyrazole derivative] | decreased Orai1 expression to normal; also recorded: marked decrease | improved | decreased | more so | improved | improved | corrected | markedly increased the VEGF expression | completely corrected | decreased; also recorded: corrected | markedly decreased | marked decreases; also recorded: decreased | decreased; also recorded: normalized | decreased; also recorded: normalized | significant decrease; also recorded: normalized | significantly reduced the elevated NGAL expression almost to normal | normalized | corrected the elevated caspase 3 expression | decreased the gene expression most of the proinflammatory cytokines to normal; also recorded: remarkably suppressive | decreased the TLR-4 gene expression to the normal level | Nf-kB gene expression (whole kidney tissue; 7 days after LPS (FIG. 2C)): decreased; CD31 gene expression (whole kidney tissue; 7 days after LPS (FIG. 5C)): increased; calcineurin gene expression (whole lung tissues; lungs, day 7 (FIG. 10E)): decreased; also recorded: normalized; Nfat gene expression (whole lung tissues; lungs, day 7 (FIG. 10F)): decreased; also recorded: normalized
2 | IGF-I: Insulin-like Growth Factor, delivered by a lentiviral vector engineered to express IGF-I injected into skeletal muscle | decreased Orai1 expression | improved | decreased | improved | improved | improved | corrected | did not affect the VEGF expression | did not indicate such beneficial effects | decreased; also recorded: corrected | markedly decreased | marked decreases; also recorded: decreased | decreased; also recorded: significant decrease | decreased; also recorded: significant decrease | decreased; also recorded: significant decrease | significantly reduced the elevated NGAL expression almost to normal | normalized | corrected the elevated caspase 3 expression | decreased the gene expression most of the proinflammatory cytokines to normal; also recorded: remarkably suppressive; also recorded: as effective as BTP-2 | decreased the TLR-4 gene expression to the normal level | IL-6 expression (whole lung tissues; lungs, day 7): markedly decrease
